Measured values taken from patent publication US8927533B2, “Thio derivatives bearing lactams as potent HDAC inhibitors and their uses as medicaments” (SIGMA-TAU Industrie Farmaceutiche Riunite S.p.A., priority 2011, dated 2015).
Like-named read-outs stand apart in the source and are kept apart here.

Key:
HDAC2 = HDAC2 (Homo sapiens, UniProt Q92769); assay: HDAC enzymatic assay, HDAC2; format: biochemical
Method: (§1) Each compound was dissolved in DMSO, and progressively diluted solutions were used for testing. […] Upon its deacetylation, the fluorophore was released given rise to fluorescence emission which was detected by a fluorimeter, and the IC50 values of the compounds were determined by analyzing dose-response inhibition curves.

HDAC1 = HDAC1 (Homo sapiens, UniProt Q13547); assay: HDAC enzymatic assay, HDAC1; format: biochemical
Method: as §1

[1] = molecular target: T1, HDAC3 (complex of full length human HDAC3 with human NCOR2 amino acids 395-489) (Homo sapiens, UniProt O15379); assay: HDAC enzymatic assay, HDAC3; format: biochemical
T1 construct: complex of full length human HDAC3 with a C-terminal His-tag; His-tag (C); host or cells: baculovirus expression system
Method: as §1

HDAC11 = molecular target: T2, HDAC11 (Homo sapiens, UniProt Q96DB2); assay: HDAC enzymatic assay, HDAC11; format: biochemical
T2 sequence (Q96DB2 1-347): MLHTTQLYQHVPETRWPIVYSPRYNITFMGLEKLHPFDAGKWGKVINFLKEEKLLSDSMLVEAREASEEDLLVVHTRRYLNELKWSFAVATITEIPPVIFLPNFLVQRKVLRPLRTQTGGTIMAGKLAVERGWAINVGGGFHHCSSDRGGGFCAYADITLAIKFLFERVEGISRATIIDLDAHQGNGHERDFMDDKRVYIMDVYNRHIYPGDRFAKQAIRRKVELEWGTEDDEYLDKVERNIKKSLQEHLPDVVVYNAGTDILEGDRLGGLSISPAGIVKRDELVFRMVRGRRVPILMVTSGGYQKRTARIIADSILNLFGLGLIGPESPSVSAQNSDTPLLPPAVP
Method: as §1

HDAC4 = HDAC4 (Homo sapiens, UniProt P56524); assay: HDAC enzymatic assay, HDAC4; format: biochemical
Method: as §1

HDAC10 = molecular target: T3, HDAC10 (Homo sapiens, UniProt Q969S8); assay: HDAC enzymatic assay, HDAC10; format: biochemical
T3 sequence (Q969S8 1-669): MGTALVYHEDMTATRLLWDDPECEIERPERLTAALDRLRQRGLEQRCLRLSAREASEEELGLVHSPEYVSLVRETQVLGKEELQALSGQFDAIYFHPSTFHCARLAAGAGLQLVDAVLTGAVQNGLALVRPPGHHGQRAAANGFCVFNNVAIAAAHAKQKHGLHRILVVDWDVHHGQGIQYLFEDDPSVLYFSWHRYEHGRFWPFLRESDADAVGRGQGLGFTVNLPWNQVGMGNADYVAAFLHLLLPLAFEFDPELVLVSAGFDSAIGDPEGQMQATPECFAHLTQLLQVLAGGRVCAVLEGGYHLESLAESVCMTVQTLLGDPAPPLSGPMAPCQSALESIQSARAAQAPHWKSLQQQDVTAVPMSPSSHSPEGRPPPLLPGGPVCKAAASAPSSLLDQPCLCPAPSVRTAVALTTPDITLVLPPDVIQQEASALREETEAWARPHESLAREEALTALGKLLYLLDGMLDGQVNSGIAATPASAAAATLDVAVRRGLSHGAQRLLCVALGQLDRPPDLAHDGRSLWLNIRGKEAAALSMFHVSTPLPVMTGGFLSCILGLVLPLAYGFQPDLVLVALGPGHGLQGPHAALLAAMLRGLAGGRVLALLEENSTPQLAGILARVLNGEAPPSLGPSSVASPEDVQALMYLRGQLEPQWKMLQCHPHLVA
Method: as §1

[2] = test system: HCT116 colon cancer cells; assay: Cytotoxicity, sulphorodamine B, HCT116; settings: Homo sapiens, HCT-116, read-out: HCT116 cell line IC50 (μM)
Method: They were allowed to attach and recover for at least 24 h.
The plates were incubated for 24 h at 37° C., after which they were washed 3 times by removal of the supernatant and addition of PBS. The plates were then incubated for further 48 h at 37° C. 200 μl PBS and 50 μl of cold 80% TCA were added and the plates were incubated on ice for at least 1 h. TCA was removed and the plates were washed 3 times by immersion in distilled-water. They were then dried on paper at 40° C. for 5 min. 200 μl of 0.4% sulphorodamine B in 1% acetic acid were added. The plates were incubated at room temperature for further 30 min. Sulphorodamine B was removed, and the plates were washed 3 times by immersion in 1% acetic acid and were dried on paper and at 40° C. for 5 min. Then 200 μl Tris 10 mM were added. The plates were kept under magnetic stirring for 20 min. Cell survival was determined by means of optical density by a Multiskan spectrofluorimeter at 540 nm. The amount of cells killed was calculated as the percentage decrease in sulphorodamine B binding compared to control cultures.

[3] = fluorogenic tetrapeptide RHKKAc substrate 10 μM, read-out: HDAC isoforms IC50 (nM), 2
[4] = fluorogenic tetrapeptide RHKKAc substrate 10 μM, read-out: HDAC isoforms IC50 (nM), 1
[5] = fluorogenic tetrapeptide RHKKAc substrate 10 μM, read-out: HDAC isoforms IC50 (nM), 3
[6] = fluorogenic tetrapeptide RHKKAc substrate 10 μM, read-out: HDAC isoforms IC50 (nM), 11
[7] = fluorogenic tetrapeptide RHKKAc substrate 10 μM, read-out: HDAC isoforms IC50 (nM), 4
[8] = fluorogenic tetrapeptide RHKKAc substrate 10 μM, read-out: HDAC isoforms IC50 (nM), 10

T1 sequence (O15379 whole entry, the tested form may be a part): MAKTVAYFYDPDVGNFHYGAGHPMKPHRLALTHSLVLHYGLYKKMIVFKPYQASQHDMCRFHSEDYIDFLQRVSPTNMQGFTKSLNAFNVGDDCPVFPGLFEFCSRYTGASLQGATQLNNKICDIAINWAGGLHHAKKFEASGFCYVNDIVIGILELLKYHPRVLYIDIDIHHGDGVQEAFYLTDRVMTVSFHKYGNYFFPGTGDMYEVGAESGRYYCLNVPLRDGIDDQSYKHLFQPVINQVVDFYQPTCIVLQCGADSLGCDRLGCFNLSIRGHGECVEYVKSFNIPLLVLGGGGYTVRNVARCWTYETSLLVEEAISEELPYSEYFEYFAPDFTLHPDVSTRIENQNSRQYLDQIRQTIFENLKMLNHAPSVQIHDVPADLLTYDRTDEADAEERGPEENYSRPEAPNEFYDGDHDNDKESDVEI
T1 sequence (Q9Y618 395-489 partner limits assumed): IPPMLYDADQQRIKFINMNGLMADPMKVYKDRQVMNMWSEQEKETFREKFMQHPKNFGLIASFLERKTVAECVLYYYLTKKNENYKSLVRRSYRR
Sequence of HDAC1 (Q13547 whole entry): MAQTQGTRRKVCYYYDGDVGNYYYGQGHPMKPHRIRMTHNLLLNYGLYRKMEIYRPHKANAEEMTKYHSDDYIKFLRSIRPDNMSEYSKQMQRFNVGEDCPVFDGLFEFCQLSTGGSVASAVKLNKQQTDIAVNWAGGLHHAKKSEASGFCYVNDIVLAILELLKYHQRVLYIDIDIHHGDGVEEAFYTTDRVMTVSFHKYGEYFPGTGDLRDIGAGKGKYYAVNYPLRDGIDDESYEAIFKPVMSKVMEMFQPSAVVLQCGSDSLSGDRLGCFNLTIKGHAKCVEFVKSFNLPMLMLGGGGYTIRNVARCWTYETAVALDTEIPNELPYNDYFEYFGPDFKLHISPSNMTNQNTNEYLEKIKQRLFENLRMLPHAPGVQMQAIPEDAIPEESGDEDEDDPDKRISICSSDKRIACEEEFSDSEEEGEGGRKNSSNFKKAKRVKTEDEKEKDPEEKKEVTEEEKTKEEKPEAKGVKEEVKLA
Sequence of HDAC2 (Q92769 whole entry): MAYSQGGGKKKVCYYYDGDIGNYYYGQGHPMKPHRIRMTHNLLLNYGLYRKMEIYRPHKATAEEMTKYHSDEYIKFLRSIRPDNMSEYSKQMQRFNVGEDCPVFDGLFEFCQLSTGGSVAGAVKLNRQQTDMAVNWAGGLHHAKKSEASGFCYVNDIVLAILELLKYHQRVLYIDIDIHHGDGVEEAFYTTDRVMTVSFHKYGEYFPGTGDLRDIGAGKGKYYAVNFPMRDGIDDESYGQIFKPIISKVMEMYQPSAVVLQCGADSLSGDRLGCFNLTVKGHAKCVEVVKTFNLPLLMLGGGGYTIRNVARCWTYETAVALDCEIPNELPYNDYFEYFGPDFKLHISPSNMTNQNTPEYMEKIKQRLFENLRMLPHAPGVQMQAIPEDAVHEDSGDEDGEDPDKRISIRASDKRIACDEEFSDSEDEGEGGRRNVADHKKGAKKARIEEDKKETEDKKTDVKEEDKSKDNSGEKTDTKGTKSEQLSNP
Sequence of HDAC4 (P56524 whole entry): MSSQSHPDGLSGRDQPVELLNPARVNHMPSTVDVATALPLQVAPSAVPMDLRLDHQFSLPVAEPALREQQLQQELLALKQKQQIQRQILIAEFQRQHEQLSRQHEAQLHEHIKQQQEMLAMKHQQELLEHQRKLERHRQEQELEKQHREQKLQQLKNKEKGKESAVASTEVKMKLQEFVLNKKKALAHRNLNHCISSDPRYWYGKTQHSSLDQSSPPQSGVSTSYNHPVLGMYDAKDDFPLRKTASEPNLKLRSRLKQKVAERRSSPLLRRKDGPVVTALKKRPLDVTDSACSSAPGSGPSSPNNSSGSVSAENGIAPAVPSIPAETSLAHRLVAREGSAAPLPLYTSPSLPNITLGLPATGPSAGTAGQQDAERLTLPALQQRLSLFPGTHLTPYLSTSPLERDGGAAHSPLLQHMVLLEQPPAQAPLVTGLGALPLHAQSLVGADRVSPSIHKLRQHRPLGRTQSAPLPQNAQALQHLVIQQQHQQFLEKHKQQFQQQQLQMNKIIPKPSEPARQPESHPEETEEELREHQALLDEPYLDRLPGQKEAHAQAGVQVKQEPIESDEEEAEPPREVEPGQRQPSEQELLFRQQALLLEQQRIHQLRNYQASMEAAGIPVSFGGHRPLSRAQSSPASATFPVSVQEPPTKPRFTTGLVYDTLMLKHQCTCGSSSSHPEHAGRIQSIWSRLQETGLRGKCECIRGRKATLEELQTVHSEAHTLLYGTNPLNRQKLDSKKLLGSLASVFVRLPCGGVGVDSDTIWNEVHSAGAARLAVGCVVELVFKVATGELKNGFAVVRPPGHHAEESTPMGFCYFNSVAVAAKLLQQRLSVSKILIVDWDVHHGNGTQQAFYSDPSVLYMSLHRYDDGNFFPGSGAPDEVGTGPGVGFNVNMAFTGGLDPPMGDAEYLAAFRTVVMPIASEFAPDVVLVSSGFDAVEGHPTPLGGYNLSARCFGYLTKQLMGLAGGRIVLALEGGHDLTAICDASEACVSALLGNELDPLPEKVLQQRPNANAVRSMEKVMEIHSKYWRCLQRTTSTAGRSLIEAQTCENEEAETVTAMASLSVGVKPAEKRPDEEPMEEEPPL

Compound | IC50 (HDAC2; [3]) [nM] | IC50 (HDAC1; [4]) [nM] | IC50 [1, 5] [nM] | IC50 (HDAC11; [6]) [nM] | IC50 (HDAC4; [7]) [nM] | IC50 (HDAC10; [8]) [nM] | IC50 (HDAC2; Table 2, thio (SH) vs hydroxamate (CONHOH) MBG analogues, read-out: HDAC isoforms, 2 (IC50)) [nM] | IC50 (HDAC1; Table 2, thio (SH) vs hydroxamate (CONHOH) MBG analogues, read-out: HDAC isoforms, 1 (IC50)) [nM] | IC50 ([1]; Table 2, thio (SH) vs hydroxamate (CONHOH) MBG analogues, read-out: HDAC isoforms, 3 (IC50)) [nM] | IC50 (HDAC11; Table 2, thio (SH) vs hydroxamate (CONHOH) MBG analogues, read-out: HDAC isoforms, 11 (IC50)) [nM] | IC50 (HDAC4; Table 2, thio (SH) vs hydroxamate (CONHOH) MBG analogues, read-out: HDAC isoforms, 4 (IC50)) [nM] | IC50 (HDAC10; Table 2, thio (SH) vs hydroxamate (CONHOH) MBG analogues, read-out: HDAC isoforms, 10 (IC50)) [nM] | IC50 [2] [µM]
O=C1CCC[C@@H](C(=O)N[C@@H](CCCCCS)C(=O)NC2CCCC2)N1 [Example 24, (S)-6-Oxo-piperidine-2-carboxylic acid ((S)-1-cyclopentylcarbamoyl-6-mercapto-hexyl)amide] | 100 to 500 | 100 to 500 | 50 to 100 | 50 to 100 | < 50 | 100 to 500 |  |  |  |  |  |  | 
O=C1CCC[C@@H](C(=O)N[C@@H](CCCCCS)C(=O)NCc2cccc(OCc3ccccc3)c2)N1 [Example 25, (S)-6-Oxo-piperidine-2-carboxylic acid [(S)-1-(3-benzyloxy-benzylcarbamoyl)-6-mercapto-hexyl]-amide] | 100 to 500 | 100 to 500 | 100 to 500 | 100 to 500 | 100 to 500 | 100 to 500 |  |  |  |  |  |  | 
O=C1CCC[C@@H](C(=O)N[C@@H](CCCCCS)C(=O)NCc2ccc(C(F)(F)F)cc2)N1 [Example 26, (S)-6-Oxo-piperidine-2-carboxylic acid [(S)-6-mercapto-1-(4-trifluoromethyl-benzylcarbamoyl)-hexyl]-amide] | 100 to 500 | 100 to 500 | 100 to 500 | 100 to 500 | < 50 | 100 to 500 |  |  |  |  |  |  | 
O=C1NC[C@H](c2ccccc2)[C@@H]1C(=O)N[C@@H](CCCCCS)C(=O)Nc1ccccc1 [Example 28, (3S,4S)-2-Oxo-4-phenyl-pyrrolidine-3-carboxylic acid ((S)-6-mercapto-1-phenylcarbamoyl-hexyl)-amide] | 100 to 500 | < 50 | < 50 | < 50 | < 50 | < 50 |  |  |  |  |  |  | 
O=C1NC[C@@H](c2ccccc2)[C@H]1C(=O)N[C@@H](CCCCCS)C(=O)Nc1ccccc1 [Example 29, (3R,4R)-2-Oxo-4-phenyl-pyrrolidine-3-carboxylic acid ((S)-6-mercapto-1-phenylcarbamoyl-hexyl)-amide] | 100 to 500 | 50 to 100 | 50 to 100 | < 50 | < 50 | < 50 |  |  |  |  |  |  | 
O=C1NC[C@H](c2ccccc2)[C@H]1C(=O)N[C@@H](CCCCCS)C(=O)Nc1ccccc1 [Example 30, (3R,4S)-2-Oxo-4-phenyl-pyrrolidine-3-carboxylic acid ((S)-6-mercapto-1-phenylcarbamoyl-hexyl)-amide] | 100 to 500 | 50 to 100 | 50 to 100 | < 50 | < 50 | < 50 |  |  |  |  |  |  | 
Cc1cccc(CCNC(=O)[C@H](CCCCCS)NC(=O)[C@@H]2CCCC(=O)N2)c1 [Example 34, (S)-6-Oxo-piperidine-2-carboxylic acid [(S)-6-mercapto-1-(2-m-tolyl-ethylcarbamoyl)hexyl]-amide] | 100 to 500 | 50 to 100 | 100 to 500 | 50 to 100 | < 50 | 50 to 100 |  |  |  |  |  |  | 

Second part, led by results:

IC50 (HDAC2; [3]) [nM] | IC50 (HDAC1; [4]) [nM] | IC50 [1, 5] [nM] | IC50 (HDAC11; [6]) [nM] | IC50 (HDAC4; [7]) [nM] | IC50 (HDAC10; [8]) [nM] | IC50 (HDAC2; Table 2, thio (SH) vs hydroxamate (CONHOH) MBG analogues, read-out: HDAC isoforms, 2 (IC50)) [nM] | IC50 (HDAC1; Table 2, thio (SH) vs hydroxamate (CONHOH) MBG analogues, read-out: HDAC isoforms, 1 (IC50)) [nM] | IC50 ([1]; Table 2, thio (SH) vs hydroxamate (CONHOH) MBG analogues, read-out: HDAC isoforms, 3 (IC50)) [nM] | IC50 (HDAC11; Table 2, thio (SH) vs hydroxamate (CONHOH) MBG analogues, read-out: HDAC isoforms, 11 (IC50)) [nM] | IC50 (HDAC4; Table 2, thio (SH) vs hydroxamate (CONHOH) MBG analogues, read-out: HDAC isoforms, 4 (IC50)) [nM] | IC50 (HDAC10; Table 2, thio (SH) vs hydroxamate (CONHOH) MBG analogues, read-out: HDAC isoforms, 10 (IC50)) [nM] | Compound | IC50 [2] [µM]
50 to 100 | < 50 | < 50 | < 50 | < 50 | < 50 |  |  |  |  |  |  | O=C1CCC[C@@H](C(=O)N[C@@H](CCCCCS)C(=O)Nc2ccccc2)N1 [Example 23, (S)-6-Oxo-piperidine-2-carboxylic acid ((S)-6-mercapto-1-phenylcarbamoyl-hexyl)amide] | 
50 to 100 | < 50 | < 50 | < 50 | 100 to 500 | < 50 |  |  |  |  |  |  | O=C1C[C@@H](C(=O)N[C@@H](CCCCCS)C(=O)Nc2ccccc2)N1 [Example 27, (S)-4-Oxo-azetidine-2-carboxylic acid ((S)-6-mercapto-1-phenylcarbamoyl-hexyl)amide] | 
< 50 | < 50 | < 50 | < 50 | < 50 | < 50 | < 50 | < 50 | < 50 | < 50 | < 50 | < 50 | O=C1NC[C@@H](c2ccccc2)[C@@H]1C(=O)N[C@@H](CCCCCS)C(=O)Nc1ccccc1 [Example 31, (3S,4R)-2-Oxo-4-phenyl-pyrrolidine-3-carboxylic acid ((S)-6-mercapto-1-phenylcarbamoyl-hexyl)-amide] | 1 to 10
< 50 | 100 to 500 | 100 to 500 | 100 to 500 | < 50 | 100 to 500 |  |  |  |  |  |  | O=C1CCC[C@@H](C(=O)N[C@@H](CCCCCS)C(=O)N2CCc3ccccc3C2)N1 [Example 32, (S)-6-Oxo-piperidine-2-carboxylic acid [(S)-1-(3,4-dihydro-1H-isoquinoline-2-carbonyl)-6-mercapto-hexyl]-amide] | 
< 50 | < 50 | < 50 | < 50 | < 50 | < 50 |  |  |  |  |  |  | O=C1NCCC[C@H]1C(=O)N[C@@H](CCCCCS)C(=O)Nc1ccccc1 [Example 35, (R)-2-Oxo-piperidine-3-carboxylic acid ((S)-6-mercapto-1-phenylcarbamoyl-hexyl)amide] | 
< 50 | < 50 | < 50 | < 50 | < 50 | < 50 |  |  |  |  |  |  | O=C1NCCC[C@@H]1C(=O)N[C@@H](CCCCCS)C(=O)Nc1ccccc1 [Example 36, (S)-2-Oxo-piperidine-3-carboxylic acid ((S)-6-mercapto-1-phenylcarbamoyl-hexyl)amide] | 
< 50 | < 50 | < 50 | < 50 | < 50 | < 50 |  |  |  |  |  |  | O=C1CCC[C@H](C(=O)N[C@@H](CCCCCS)C(=O)Nc2ccccc2)N1 [Example 37, (R)-6-Oxo-piperidine-2-carboxylic acid ((S)-6-mercapto-1-phenylcarbamoyl-hexyl)amide] | 
< 50 | < 50 | < 50 | < 50 | 100 to 500 | < 50 |  |  |  |  |  |  | Cc1cccc(NC(=O)[C@H](CCCCCS)NC(=O)[C@@H]2CCCC(=O)N2)c1 [Example 38, (S)-6-Oxo-piperidine-2-carboxylic acid ((S)-6-mercapto-1-m-tolylcarbamoyl-hexyl)amide] | 
50 to 100 | < 50 | < 50 | < 50 | 100 to 500 | < 50 |  |  |  |  |  |  | Cc1ccc(NC(=O)[C@H](CCCCCS)NC(=O)[C@@H]2CCCC(=O)N2)cc1 [Example 39, (S)-6-Oxo-piperidine-2-carboxylic acid ((S)-6-mercapto-1-p-tolylcarbamoyl-hexyl)amide] | 
50 to 100 | < 50 | < 50 | < 50 | 100 to 500 | < 50 |  |  |  |  |  |  | CN1C(=O)CCC[C@H]1C(=O)N[C@@H](CCCCCS)C(=O)Nc1ccccc1 [Example 40, (S)-1-Methyl-6-oxo-piperidine-2-carboxylic acid ((S)-6-mercapto-1-phenylcarbamoyl-hexyl)-amide] | 
